{"source": "patent US20090081314A1", "about": "“Glycemic Control, Diabetes Treatment, and Other Treatments with Acetyl Cholinesterase Inhibitors” (priority 2007, published 2009)", "key": {"[1]": {"settings": "for fasting blood glucoses: patient eleven"}, "[2]": {"assay": "Cephalization of body mass / weight loss case studies", "settings": "patient seventeen; three months of donepezil 5 mg daily, no dieting or exercise program"}, "[3]": {"assay": "Insulin requirement of diabetic patients on donepezil (case studies)", "type": "in vivo, human", "settings": "for insulin requirements at bedtime (lantus): patient eleven, before 35 units"}, "[4]": {"assay": "Renal function (BUN, creatinine, ultrafiltration) in patients on donepezil (case studies)", "type": "in vivo, human"}, "[5]": {"assay": "Coronary artery disease / congestive failure case studies: blood pressure and symptoms", "type": "in vivo, human", "description": "The present disclosure provides clinical evidence of the use of an acetyl cholinesterase inhibitor for treating coronary artery diseases including heart disease."}, "[6]": {"assay": "Other clinical observations in diabetic patients on donepezil (case studies)", "type": "in vivo, human"}, "HIV": {"system": "HIV", "assay": "HIV infection case studies: viral load and CD4 count", "type": "in vivo, human", "settings": "for viral load / CD4 count: on antivirals", "description": "The state of HIV infection is often monitored by CD4 counts (the higher the better) and circulating virus (the lower the better)."}, "[7]": {"settings": "patient twelve, over the next week of donepezil 5 mg daily"}, "[8]": {"settings": "patient three, donepezil 5 mg daily, over the next week"}, "[9]": {"settings": "patient six, two months of donepezil 5 mg daily"}}, "note": "Like-named read-outs stand apart in the source and are kept apart here.", "data": [{"smiles": "COc1cc2c(cc1OC)C(=O)C(CC1CCN(Cc3ccccc3)CC1)C2", "note": "(centres unmarked) [donepezil]", "values": [{"measurement": "fasting blood glucoses", "setting": "[1]; donepezil 10 mg daily", "value": "less than 80 mg %"}, {"measurement": "fasting blood glucoses", "setting": "[1]; first month, donepezil 5 mg orally daily", "value": "less than 80 mg %"}, {"measurement": "fasting blood sugars", "setting": "[1]; patient fifteen, after one week of donepezil 5 mg daily", "value": "less than 100 mg %"}, {"measurement": "preprandial blood sugars", "setting": "[1]; patient five, after 3 days of donepezil 5 mg orally daily plus prandin 2 mg, before 100-120", "value": "less than 80 mg %"}, {"measurement": "blood sugars", "setting": "[1]; patient five, donepezil 5 mg daily, prandin discontinued, 1800 ADA diet", "value": "less than 110 mg %"}, {"measurement": "blood sugar at lunch, one episode", "setting": "[1]; patient five, donepezil 5 mg orally daily plus prandin", "value": "less than 50 mg %"}, {"measurement": "other measured blood glucoses", "setting": "[1]; patient nine, donepezil 10 mg, all oral hypoglycemic agents discontinued", "value": "less than 120 mg %"}, {"measurement": "fasting blood glucose levels", "setting": "[1]; patient nine, over 7 days of donepezil 5 mg orally daily, micronase discontinued", "value": "less than 90 mg %"}, {"measurement": "blood glucose values", "setting": "[1]; patient nineteen, donepezil 10 mg, metformin discontinued, 1800 cal ADA diet", "value": "less than 120 mg %"}, {"measurement": "fasting blood sugars", "setting": "[1]; patient sixteen, following donepezil 5 mg daily, glipizide discontinued, before 150-200", "value": "less than 100 mg %"}, {"measurement": "fasting blood sugars", "setting": "[1]; patient ten, first week of donepezil 5 mg orally daily", "value": "less than 100 mg %"}, {"measurement": "blood sugars", "setting": "[1]; patient ten, next 7 days of donepezil 5 mg orally daily", "value": "less than 111 mg %"}, {"measurement": "fasting blood sugars", "setting": "[1]; patient twelve, first 4 days of donepezil 5 mg daily", "value": "less than 100 mg %"}, {"measurement": "fasting blood sugars", "setting": "[1]; patient twelve, next week of donepezil 5 mg daily", "value": "less than 100 mg %"}, {"measurement": "over all weight loss", "setting": "[2]", "value": "greater than 20 pounds"}, {"measurement": "evening dose of glargine insulin", "setting": "[3]; patient eighteen, donepezil 10 mg orally daily, one month, before 5 units", "value": "discontinued"}, {"measurement": "insulin requirements at bedtime (lantus)", "setting": "[3]; donepezil increased to 10 mg daily", "value": 12, "unit": "units"}, {"measurement": "insulin requirements at bedtime (lantus)", "setting": "[3]; over one month of donepezil 5 mg orally daily", "value": 25, "unit": "units"}, {"measurement": "pre prandial insulin coverage", "setting": "[3]; patient four, after one month of donepezil 5 mg daily", "value": "eliminated"}, {"measurement": "requirement for lantus insulin", "setting": "[3]; patient nineteen, donepezil 5 then 10 mg, before 12 units at bedtime", "value": "no longer required lantus insulin"}, {"measurement": "daily insulin requirement over a 24 hour period", "setting": "[3]; patient one, after an additional month (two months) of donepezil 5 mg daily, before approx. 32 units", "value": "approximately 12 units"}, {"measurement": "insulin requirement for 24 hour period", "setting": "[3]; patient one, insulin pump, after one month of donepezil 5 mg orally daily, before approx. 32 units", "value": "< 20", "unit": "units"}, {"measurement": "pre-prandial insulin coverage (Novolog)", "setting": "[3]; patient twelve, over 4 days of donepezil 5 mg daily, before 8 units", "value": 4, "unit": "units"}, {"measurement": "evening dose of lantus insulin", "setting": "[3]; patient twelve, over 4 days of donepezil 5 mg daily, before 30 units", "value": 20, "unit": "units"}, {"measurement": "evening dose of lantus", "setting": "[3]; [7]", "value": 10, "unit": "units"}, {"measurement": "pre prandial insulin coverage", "setting": "[3]; [7]", "value": "eliminated"}, {"measurement": "dose of Humulin N in the AM", "setting": "[3]; po, 5 mg", "value": 10, "unit": "units"}, {"measurement": "evening dose of Humulin", "setting": "[3]; po, 5 mg", "value": 20, "unit": "units"}, {"measurement": "creatinine", "setting": "[4]; patient fifteen, two months of donepezil 5 mg daily, before 1.8", "value": 1.1}, {"measurement": "BUN", "setting": "[4]; patient fifteen, two months of donepezil 5 mg daily, before 40", "value": 24}, {"measurement": "creatinine", "setting": "[4]; patient fourteen, five weeks of donepezil 5 then 10 mg, admission 2.0", "value": 1.2}, {"measurement": "ultrafiltration per dialysis", "setting": "[4]; patient sixteen, hemodialysis, two months of donepezil 5 mg daily, before 5-6 liters three times weekly", "value": "less than 2 liter"}, {"measurement": "creatinine", "setting": "[4]; patient twelve, one month of donepezil 5 mg daily, admission 1.6", "value": 0.9}, {"measurement": "BUN", "setting": "[4]; patient twelve, one month of donepezil 5 mg daily, admission 38", "value": 21}, {"measurement": "blood pressure", "setting": "[5]; patient eight, after one month, midodrine and diuretic discontinued", "value": "120/70"}, {"measurement": "blood pressure", "setting": "[5]; patient eight, ensuing week of donepezil 5 mg daily", "value": "110/60"}, {"measurement": "blood pressure", "setting": "[5]; patient eight, over 5 days of donepezil 5 mg daily, midodrine decreased, before 85/60", "value": "100/60"}, {"measurement": "blood pressure", "setting": "[5]; patient eighteen, next 10 days of donepezil 5 mg daily", "value": "100/70"}, {"measurement": "blood pressure", "setting": "[5]; patient eighteen, over 7 days of donepezil 5 mg daily, before 80/50", "value": "90/60"}, {"measurement": "blood pressure", "setting": "[5]; patient seven, donepezil 5 mg daily, furosemide 20 mg every day", "value": "110/70"}, {"measurement": "diastolic blood pressure", "setting": "[5]; patient seven, first two weeks of donepezil 5 mg daily", "value": "less than 80 mm Hg"}, {"measurement": "diastolic blood pressure", "setting": "[5]; patient seven, next two weeks of donepezil 5 mg daily", "value": 70, "unit": "mm Hg"}, {"measurement": "blood pressure", "setting": "[5]; patient seventeen, follow up one month later on donepezil 5 mg daily", "value": "120/60"}, {"measurement": "blood pressure", "setting": "[5]; patient seventeen, ten days of donepezil 5 mg daily, midodrine discontinued", "value": "greater than 100/60"}, {"measurement": "blood pressure", "setting": "[5]; [8]", "value": "normalized"}, {"measurement": "symptoms of congestive heart failure", "setting": "[5]; [8]", "value": "resolved"}, {"measurement": "blood pressure", "setting": "[5]; patient twenty, donepezil 5 mg daily, two weeks after nitrates and lisinopril discontinued", "value": "120/70"}, {"measurement": "blood pressure", "setting": "[5]; patient twenty, donepezil 5 mg daily, week after lisinopril decreased to 5 mg daily", "value": "110/70"}, {"measurement": "blood pressure", "setting": "[5]; patient twenty, over two weeks of donepezil 5 mg daily, before 80/50", "value": "100/70"}, {"measurement": "shortness of breath", "setting": "[5]; patient two, after one week of donepezil 5 mg daily", "value": "no further episodes of shortness of breath"}, {"measurement": "blood pressure", "setting": "[5]; patient two, after one week of donepezil 5 mg daily with furosemide 40 mg daily", "value": "100/60"}, {"measurement": "blood pressure", "setting": "[5]; patient two, one week later, furosemide 20 mg every other day", "value": "110/70"}, {"measurement": "lymphedema in lower extremities", "setting": "[6]; patient five, over the next month of donepezil 5 mg orally daily", "value": "notable decline"}, {"measurement": "symptoms of painful diabetic polyneuropathy", "setting": "[6]; patient four, one month of donepezil 5 mg daily", "value": "significantly reduced"}, {"measurement": "electrocardiogram", "setting": "[6]; patient fourteen (history of atrial fibrillation), donepezil 10 mg orally daily, about five weeks", "value": "normal sinus rhythm"}, {"measurement": "foot drop", "setting": "[6]; patient one, two months of donepezil 5 mg orally daily", "value": "resolved"}, {"measurement": "painful symptoms of diabetic polyneuropathy", "setting": "[6]; patient seven, donepezil 5 mg orally daily", "value": "diminution"}, {"measurement": "edema in intact lower extremity", "setting": "[6]; patient twelve, donepezil 5 mg daily", "value": "eliminated"}, {"measurement": "viral load", "setting": "HIV; patient six, one month of donepezil 5 mg orally daily, before 1-2 million", "value": 1, "unit": "million"}, {"measurement": "CD4 count", "setting": "HIV; patient six, one month of donepezil 5 mg orally daily, before less than 20", "value": 26}, {"measurement": "CD4 count", "setting": "HIV; [9]", "value": 42}, {"measurement": "viral load", "setting": "HIV; [9]", "value": "non existent (below measurement detection)"}, {"measurement": "CD4 count", "setting": "HIV; patient thirteen, two months of donepezil 5 mg daily, before 24", "value": 36}, {"measurement": "viral load", "setting": "HIV; patient thirteen, two months of donepezil 5 mg daily, before over 4 million", "value": 1.6, "unit": "million"}, {"measurement": "weight gained", "setting": "HIV; patient thirteen, two months of donepezil 5 mg daily", "value": "over 15 pounds"}]}]}
